In patent publication US20210052528A1, “THE USE OF SGC ACTIVATORS AND SGC STIMULATORS FOR THE TREATMENT OF COGNITIVE IMPAIRMENT” (Bayer Aktiengesellschaft, priority 2018, published 2021):
Read-outs that look alike come from different tables or passages of the source.

Key:
[1] = test system: healthy mice; conditions: cited from earlier work
[2] = test system: normotensive Wistar rats; assay: Measurement of arterial blood pressure in vivo by radiotelemetry in conscious rats; design: species or system rat; conditions: over 24 hours; for effect on mean arterial blood pressure (MAP) over the dose range: all tested doses compared to vehicle
Experimental: Adult normotensive Wistar rats (Wistar HSD CPB:WU) with a body weight of 250 to 350 g were used for these experimental studies. All animals were housed in individual cages at 22-24° C. ambient temperature and maintained on a 12-hour light/dark cycle with free access to standard laboratory rat chow and water ad libitum. All animal experiments were done in accordance to the current national legislation (German protection of animals act and the EU directives on the protection of animals used for scientific purposes). All performed studies were approved by the regional regulatory authority (LANUV NRW in Germany) and by the institutional animal care and use committee of Bayer AG.
Blood pressure is monitored in freely moving conscious rats by radiotelemetry by a telemetric system (DSI Data Science International, MN, USA). A transmitters (TAI1PA-C40) is implanted in the abdomen of the rat during deep anaesthesia. After recovery of the rats, telemetric signals are registered by a receiver plate (RA1010) and compiled by a computer-based acquisition software (Dataquest A.R.T 4.1 for Windows).
After shaving the abdominal wall of the rat, a midline abdominal incision was made, and the fluid-filled sensor catheter was inserted upstream into the exposed descending aorta between the iliac bifurcation and the renal arteries. According to the DSI guidelines the tip of the telemetric catheter was located just caudal to the renal arteries and secured by tissue adhesive. The transmitter body was affixed to the inner peritoneal wall before closure of abdomen. A two-layer closure of the abdominal incision was used, with individual suturing of the peritoneum and the muscle wall followed by closure of the outer skin. Surgery was performed under aseptic conditions. For postsurgical protection against infections and pain a single dosage of an antibiotic (Oxytetracyclin® 10%, 60 mg/kg s.c., 0.06 ml/100 g body weight, Beta-Pharma GmbH & Co, Germany) and analgesic were injected (Rimadyl®, 4 mg/kg s.c., Pfizer, Germany).
After activation of the implanted transmitters, A.R.T., an on-line data acquisition system, samples data and converts telemetric pressure signals to mm Hg. A barometric pressure reference allows for relation of absolute pressure (relative to vacuum) to ambient atmospheric pressure. Data acquisition software was predefined to sample hemodynamic data for 10-s intervals every 5 minutes. Data collection to file was started 2 hours (T=−2 hours) before drug administration (T=0 hours) and finished after completion of 24 hours (T=24 hours).
Data are expressed as % of baseline values. The baseline value for each animal was calculated and represents the mean blood pressure of the 2 hour period (T=−2 hours to T=0 hours) before the administration of drug or vehicle. For further analysis data were grouped to provide mean for every 0.5 hours. The means of all values obtained for each individual during the period indicated were averaged for each day. Groups were compared by one-way ANOVA with Dunnet's test.
All animals were treated with single oral doses of vehicle or the compound in different dosages (e.g. 0.3, 1.0, 3.0, or 10.0 mg/kg). Application volume was 2 ml/kg body weight. The experiment started at 7:00 a.m. (T=−2 hours), vehicle or drug administration took place at 9.00 a.m. (=0 hours) and registration period was 24 hours. For analysis, data were grouped to provide half-hourly averages.

[3] = test system: male Wistar rats; assay: Object Location Task (OLT), learning and memory improvement in vivo; design: species or system rat; conditions: for memory performance, discrimination index (d2), compared with chance level (d2=0): one-sample t-test; for memory performance, discrimination index (d2), compared to the vehicle condition: one-way ANOVA, LSD t-tests; for dose with the most prominent effect in the memory test: object location task, rats, dose does not decrease blood pressure
From the text: Therefore, the well accepted Object Location Task (OLT) in rats was used. This task allows the assessment of acquisition, consolidation and retrieval of (spatial) information into memory, and is derived from the Object Recognition Task (ORT) (e.g. Ennaceur and Delacour, 1988; Prickaerts et al., 1997).
All experimental procedures were approved by the local ethical committee of Maastricht University for animal experiments and met governmental guidelines. […] The animals were housed individually in a standard IVC cage system on sawdust bedding in an air-conditioned room (about 20° C.). They were kept under a reversed 12/12 h light/dark cycle (lights on from 19.00 to 07.00) and had free access to food and water. Rats were housed and tested in the same room. A radio, which was playing softly, provided background noise in the room. All testing was done between 09.00 and 17.00.
The test compounds were freshly prepared on every experimental day and were dissolved in 0.5% Tylose solution (98% of the end volume) with 2% Tween80.
The order of the treatments was balanced to prevent the data from being distorted by potential object- and side-preferences of the animals.
The Object Location Task (OLT) was derived from the Object Recognition Test (ORT) (Ennaceur and Delacour, 1988). The OLT is a one-trial learning task which allows the assessment of spatial memory, and was performed as described elsewhere (Bruno et al., 2011, Vanmierlo et al., 2011). In the first (learning) trial a rat is put into an arena in which two identical objects are placed. After a certain delay, the rat is given a second trial. In this second trial the rat is again placed in the same arena but now one of the objects has been moved to a different position within the area. In other words, a new spatial arrangement is being used.
The apparatus consisted of a circular arena, 83 cm in diameter. The back-half of the 40 cm high arena wall was made of gray polyvinyl chloride, the front-half consisted of transparent polyvinyl chloride. The light intensity was equal in the different parts of the apparatus, as fluorescent red tubes provided a constant illumination of about 20 lux on the floor of the apparatus. In the first (learning) trial (T1), two objects were placed in a symmetrical position on a distance of about 10 cm from the wall of the left- and the right-side of the arena. In the second (test) trial (T2), one object is moved to a new location which is about 20 cm higher or lower than the original positon. Four different sets of objects were used. The different objects were: 1) a cone consisting of a gray polyvinyl chloride base (maximal diameter 18 cm) with a collar on top made of aluminum (total height 16 cm), 2) a standard 1 L brown glass bottle (diameter 10 cm, height 22 cm) filled with water, 3) a massive metal cube (10.0×5.0×7.5 cm) with two holes (diameter 1.9 cm), and 4) a solid aluminum cube with a tapering top (13.0×8.0×8.0 cm). Rats were unable to displace the objects.
A testing session consisted of two trials. The duration of each trial was 3 min. During the first trial (T1) the apparatus contained two identical objects. Rats were placed in the apparatus facing the wall at the middle of the front (transparent) segment. After the first exploration period the rat was put back in its home cage. Subsequently, after a 24 h delay interval, the rat was put in the apparatus for the second trial (T2). The total time an animal spent exploring each object during T1 and T2 was recorded manually with a personal computer.
Exploration was defined as follows: directing the nose to the object at a distance of no more than 2 cm and/or touching the object with the nose. Sitting on the object was not considered as exploratory behavior. A minimal amount of object interaction is required in order to achieve reliable object discrimination, therefore rats that explore less than 7 s in T1 and/or 9 s in T2 should be excluded from the analyses (Akkerman et al., 2012).

[4] = 0.1 mg/kg p.o. 30 min before T1, 24 h interval
[5] = 0.3 mg/kg p.o. 30 min before T1, 24 h interval
[6] = 1.0 mg/kg p.o. 30 min before T1, 24 h interval

COC(=O)N(C)c1c(N)nc(-c2nn(Cc3ccccc3F)c3ncccc23)nc1N [Riociguat]
spatial memory ([1]; higher doses 0.1-0.3 mg/kg): no significant effect | spatial memory ([1]; lower dose 0.01 mg/kg): no significant effect | spatial memory ([1]; single dose of 0.03 mg/kg): able to enhance spatial memory

C[C@H]([C@H](C(=O)Nc1cc(C(CC(=O)O)C2CC2)ccc1Cl)c1ccc(Cl)cc1)C(F)(F)F (stereo partly drawn) [compound of formula (1), 3-(4-chloro-3-{[(2S,3R)-2-(4-chlorophenyl)-4,4,4-trifluoro-3-methylbutanoyl]amino}phenyl)-3-cyclopropylpropanoic acid]
mean arterial blood pressure (MAP) compared to vehicle ([2]; 1.0 mg/kg single oral dose): no significant decrease | mean arterial blood pressure (MAP) compared to vehicle ([2]; 3.0 mg/kg single oral dose): no significant decrease | mean arterial blood pressure (MAP) compared to vehicle ([2]; 10.0 mg/kg single oral dose): significantly lowered | effect on mean arterial blood pressure (MAP) over the dose range [2]: dose-dependent effect | memory performance, discrimination index (d2), compared with chance level (d2=0) ([3]; 0.03 mg/kg p.o. 30 min before T1, 24 h interval): improved memory performance | memory performance, discrimination index (d2), compared with chance level (d2=0) [3, 4]: improved memory performance | memory performance, discrimination index (d2), compared to the vehicle condition [3, 4]: significant higher memory performance | memory performance, discrimination index (d2), compared with chance level (d2=0) [3, 5]: improved memory performance | memory performance, discrimination index (d2), compared to the vehicle condition [3, 5]: significant higher memory performance | memory performance, discrimination index (d2), compared with chance level (d2=0) [3, 6]: improved memory performance | memory performance, discrimination index (d2), compared to the vehicle condition [3, 6]: significant higher memory performance | dose with the most prominent effect in the memory test [3]: 0.3 mg/kg

O=C(O)CCCCN(CCc1cc(F)ccc1OCc1ccc(-c2ccc(C(F)(F)F)cc2)cc1)Cc1ccc(C(=O)O)cc1 [compound of formula (2), 4-({(4-carboxybutyl)[2-(5-fluoro-2-{[4′-(trifluoromethyl)[1,1′-biphenyl]-4-yl]methoxy}phenyl)ethyl]amino}methyl)benzoic acid]
memory performance, discrimination index (d2), compared with chance level (d2=0) [3, 4]: improved memory performance | memory performance, discrimination index (d2), compared with chance level (d2=0) [3, 5]: improved memory performance | memory performance, discrimination index (d2), compared to the vehicle condition [3, 5]: significant higher memory performance | memory performance, discrimination index (d2), compared with chance level (d2=0) [3, 6]: improved memory performance | memory performance, discrimination index (d2), compared to the vehicle condition [3, 6]: significant higher memory performance

COC(=O)Nc1c(N)nc(-c2nn(Cc3ccccc3F)c3ncc(F)cc23)nc1N [compound of formula (5), methyl{4,6-diamino-2-[5-fluoro-1-(2-fluorobenzyl)-1H-pyrazolo[3,4-b]pyridine-3-yl]pyrimidin-5-yl}carbamate]
mean arterial blood pressure (MAP) compared to vehicle ([2]; 0.3 mg/kg single oral dose): no significant decrease | mean arterial blood pressure (MAP) compared to vehicle ([2]; 1.0 mg/kg single oral dose): significantly lowered | mean arterial blood pressure (MAP) compared to vehicle ([2]; 3.0 mg/kg single oral dose): significantly lowered | effect on mean arterial blood pressure (MAP) over the dose range [2]: dose-dependent effect | memory performance, discrimination index (d2), compared with chance level (d2=0) [3, 4]: improved memory performance | memory performance, discrimination index (d2), compared with chance level (d2=0) [3, 5]: improved memory performance | memory performance, discrimination index (d2), compared to the vehicle condition [3, 5]: significant higher memory performance | memory performance, discrimination index (d2), compared with chance level (d2=0) [3, 6]: improved memory performance | memory performance, discrimination index (d2), compared to the vehicle condition [3, 6]: significant higher memory performance | dose with the most prominent effect in the memory test [3]: 0.3 mg/kg
